According to publication PMC7176418 (Science Advances, 2020):

Experiments:
Experiment in all cases: biolayer interferometry
Assay type in all cases: binding
Snail [1] = target: Snail (Homo sapiens, UniProt O95863)
Snail [2] = target: Snail (Homo sapiens, UniProt O95863, R174A)
Slug (Snail2) = target: T1, Slug (Snail2) (Homo sapiens, UniProt O43623)
T1 sequence (O43623 1-268): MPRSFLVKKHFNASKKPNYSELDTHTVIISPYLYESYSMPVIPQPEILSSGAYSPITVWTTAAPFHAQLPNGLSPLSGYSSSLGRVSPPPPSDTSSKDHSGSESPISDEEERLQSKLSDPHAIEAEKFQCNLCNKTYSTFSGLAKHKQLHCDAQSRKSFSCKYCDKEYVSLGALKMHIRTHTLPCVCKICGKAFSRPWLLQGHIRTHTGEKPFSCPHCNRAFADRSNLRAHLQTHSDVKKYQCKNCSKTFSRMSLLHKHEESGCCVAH

Sequence of Snail (Homo sapiens, UniProt O95863) (O95863 whole entry): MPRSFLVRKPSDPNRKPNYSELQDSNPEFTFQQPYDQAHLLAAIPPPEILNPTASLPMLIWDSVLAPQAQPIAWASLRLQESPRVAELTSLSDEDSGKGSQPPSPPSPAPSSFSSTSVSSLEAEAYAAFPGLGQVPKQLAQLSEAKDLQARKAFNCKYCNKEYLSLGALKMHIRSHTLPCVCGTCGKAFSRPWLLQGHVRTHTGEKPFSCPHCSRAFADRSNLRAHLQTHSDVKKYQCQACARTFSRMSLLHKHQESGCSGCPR
Sequence of Snail (Homo sapiens, UniProt O95863, R174A) (O95863 whole entry R174A): as the sequence (O95863 whole entry) above, with R174A counted along it

Kd (Snail [1]): 0.18 µM | Kd (Snail [2]): 3 µM | Kd (Slug (Snail2)): 0.6 µM
SMILES: Cc1cc(Nc2nc(SCc3ccc(C(=O)Nc4ccc(F)cc4N)cc3)nn3cccc23)n[nH]1 [CYD19]
